The values below come from publication PMC6733959, “Synthesis and Evaluations of Novel Apocynin Derivatives as Anti-Glioma Agents” (Frontiers in Pharmacology, 2019).

One data set relates to C6 cells. Nature of the data set: Apoptosis by Annexin V-FITC/PI staining, C6 cells. Type of data set: cell-based, rat. Particulars: 48 h, mean ± SD. How it is done:
(§1) The effects of test compound on apoptosis were detected by Annexin V-FITC/PI staining. Briefly, after treatment with indicated concentrations of test compounds (20, 50 μM) for 48 h, the cells were collected and resuspended in 500-μl detection buffer. Then 5μl PI and 5μl Annexin V-FITC were added to the detection buffer. Then, cells were incubated for 15 min in the dark and analyzed using Flow cytometer (Becton Dickinson) and WinMDI 2.8 software (Scripps Institute, La Jolla, CA, USA).

The test system of a further data set is NADPH oxidase (NOX). Nature of the data set: NOX activity determination, C6 cells. In kind it is cell-based, rat. Conditions: 20 and 50 μM. On the procedure: The effects of candidate drug on NOX activities were measured using cytochrome c reductase (NADPH) Assay Kit (Sigma-Aldrich, St. Louis, MO, USA). Brieﬂy, after the compound treatment (20, 50 μM), the cells were collected and homogenized in an isotonic buffer ([…]), and centrifuged at 1,000 g to obtain the post-nuclear supernatants. Then 50μl samples were added to 950μl working solution (at 25°C) in a 1ml cuvette and mixed by inversion. Then 20μl cytochrome c oxidase inhibitor solution was added. After reaction with 100 μl NADPH solution, the cytochrome c absorbance was monitored at 550 nm by a spectrophotometer.

In the next data set the test system is BMECs. Nature of the data set: MTT assay on normal BMECs (48 and 96 h). In kind it is cell-based. Particulars: Rattus norvegicus. How it is done: (§2) Rat brain microvascular endothelial cells (BMECs) were separated from the cerebral cortex of 18-day-old male Sprague-Dawley rats as described previously ([Biegel et al., 1995]). Briefly, the cerebral cortical tissues were dissected from meninges after the rats were sacrificed, then the tissues were homogenated in physiological buffer solution (pH 7.4). After centrifugation, the pellets were collected, and the microvascular segments were then digested with 0.1% collagenase II at 37°C for 1 h. […] The second passage was used for co-culture of BBB cellular models.
(§3) The anti-glioma effects of these compounds were evaluated by MTT assay in rat C6 glioma cells, human glioma U87 and U251 cells, and BMECs cells. Brieﬂy, cells were seeded at the density of 4,000 cells/well in 96-well plates overnight. For the first screening, the cells were incubated with 10, 20, 100 μM compounds for 48 h. Then cell viabilities were detected by MTT assay as described above. For the second screening, the cells were incubated with 6.25-, 12.5-, 25-, 50-, and 100μM compounds for 48 and 96 h, and then detected by MTT assay. The OD of each well was measured at 490 nm on an ELISA microplate reader. The inhibitory rates and IC50 values were calculated.
For orientation: Tetrazolium dyes change colour on reduction, which living cells bring about.

Data set [1] concerns NF-κB pathway-related proteins. Nature of the data set: Western blot of NF-κB pathway-related proteins, C6 cells. Type of data set: cell-based, rat. Conditions: 20 and 50 μM, 48 h. On the procedure:
Briefly, after treatment with indicated concentrations of test compound (20, 50 μM) for 48 h, the cells were collected, and total cell lysates and nucleus fractions were extracted. Twenty micrograms of cellular protein were subjected to electrophoresis on 12% SDS-polyacrylamide gels and then transferred to polyvinylidene difluoride membranes. The membranes were first incubated with 5% BSA for 2 h at 37°C and then incubated with the first antibodies overnight at 4°C. After HRP-labeled secondary antibodies (1:1,000-dilution) incubation, protein bands were visualized with the enhanced chemiluminescence (ECL) detection solution. The intensity of bands was quantified using ImageJ 1.43 software (National Institutes of Health, Bethesda, MD, USA).

The subject of a further data set is U87 cells. Nature of the data set: Apoptosis by Annexin V-FITC/PI staining, U87 cells. Type of data set: cell-based, human. Conditions: 48 h, mean ± SD. On the procedure:
as §1

For the next data set, the system named is human glioma U87 cells. As to the kind of experiment: Anti-glioma MTT assay, U87 cells. Type of data set: cell-based. Particulars: for IC50: Homo sapiens, U-87 MG, U87 cells. On the procedure:
as §3

Data set [2] in a line: Transport experiment in the in vitro BBB cell model. Conditions: Sprague-Dawley, rat, C0 20 μM, apical to basolateral, mean ± SD (n = 3-4), read-out: Papp × 10^−6. In kind it is in vitro ADME. On the procedure:
as §2
Astrocytes were separated from the cerebral cortex of newborn Sprague-Dawley rats (1–2 days) as described previously ([Jeliazkova-Mecheva and Bobilya, 2003]). The brain tissues (removal of the meninges and blood vessel) were minced and mechanical homogenized and then digested with 0.25% trypsin-EDTA at 37°C for 10 min.
The in vitro BBB cell model was constructed in the Transwell 24well plate ([…], Millipore, USA). Before the experiment, the transwell filters were coated with matrigel matrix. The isolated rat astroglias were seeded onto one side of polycarbonate inserts (5 × 10^4 cells/insert). After 3 to 5 days, the rat BMECs were seeded at a density of 1.5 × 10^5 cells/insert onto the opposite side of the inserts to produce rat BMEC monolayers. The in vitro BBB cell model was formed 3 to 4 days. Trans-epithelial electrical resistance (TEER) measurements were performed everyday after the co-cultures formed until the TEER value increased to […] ([Yang et al., 2014]) ( Figure 2C ).
The transport experiments were performed by adding 400 μl HBSS containing the compounds to the apical side (AP), with 600μl HBSS to the basolateral side (BL) at the same time. Samples (60 μl) were collected from the BL chamber at the time points of 15, 30, 60, 90, 120, and 180 min, and the corresponding volume of HBSS buffer was immediately added into the BL chamber. The samples were precipitated by methanol, and the concentrations of the compounds in the samples were determined by high-performance liquid chromatography (HPLC). The HPLC conditions were as follows: Agilent TC-C18 column (250 × 4.6 mm; 5 μm), methanol 1% ethanoic acid mobile phase (from 10:90 to 90:10, v/v), with gradient elution at a flow rate of 1.0 ml/min. The detection wavelength was 275 nm for these compounds. The run time was 20 min. The apparent permeability coefficients (P app) were calculated from the following formula: P app = (∆Q/∆t)/(A × C 0), where ∆Q/∆t is the linear appearance rate of the compound on the BL side (μmol/s), A is the surface area of the cell monolayer (cm^2), and C 0 is the initial concentration of the drug on the AP side (μmol/L).

Another data set concerns rat BMECs. As to the kind of experiment: Cytotoxicity of apocynin derivatives on rat BMECs (MTT, 24 h). Type of data set: cell-based. Particulars: 100 μM, vs control, P < 0.05. How it is done:
as §2
Rat BMECs were collected and seeded into 96-well culture plates at a density of 7.5 × 10^3 cells/well overnight. The cells were treated with different concentrations of the compounds (10, 20, and 100 μM) for 24 h, respectively. Then, 20-μl MTT (5 mg/ml) in fresh medium was added to each well and incubated for another 4 h. Finally, 150μl dimethyl sulfoxide (DMSO) was added to dissolve formazan crystals, and the absorbance was detected at 490 nm in a multiwall-plate reader (BioTek ELx800).

The test system of a further data set is human glioma U251 cells. Nature of the data set: Anti-glioma MTT assay, U251 cells. In kind it is cell-based. On the procedure:
as §3

One may read the IC50 as the point on the concentration scale where inhibition reaches its midpoint. High values mean a need for much substance, low ones inhibition by little substance. The term Papp denotes a coefficient for how fast a substance crosses the barrier. With `COc1cc(C(=O)CSCc2ccccc2Cl)ccc1O` [Compound D31, 2-((2-Chlorobenzyl)thio)-1-(4-Hydroxy-3-Methoxyphenyl)Ethan-1-One], the Apoptotic cell rate in the data set with C6 cells (20 μM) amounted to 27.9 ± 4.2%; with C6 cells (50 μM), 32.2 ± 5.0%; in the data set on U87 cells (20 μM), 16.7 ± 3.1%; in the data set on U87 cells (50 μM) it was 29.7 ± 4.7%. Also, the “Effect on NOX activities vs control” value in the data set on NADPH oxidase (NOX) is reported as “no obvious effects”. For the same compound, the half-maximal inhibitory concentration (IC50) in the data set on BMECs (48 h) was greater than 100 µM; in the data set with BMECs (96 h), greater than 100 µM; in the data set on human glioma U87 cells (48 h), 23.5 µM; in the data set on human glioma U87 cells (96 h), 21.5 µM; in the data set on human glioma U251 cells (U-251, 48 h), 40.1 µM; in the data set on human glioma U251 cells (U-251, 96 h), 35.1 µM. Further, the IκBα expression result in data set [1] is given as “obviously decreased”. Moreover, the “nucleus p-NF-κB p65 expression” value in data set [1] is recorded as “obviously increased”. The p-IKKα/β expression result in data set [1] was “obviously increased”. Besides, the “Anti-proliferation effect on U87 cells (first screening)” value with human glioma U87 cells (10, 20, 100 μM, 48 h, compared with D1, P < 0.05) is reported as “significant anti-proliferation effects”. In addition, the Papp at 90 min, 20 μM in data set [2] was found to be 12 ± 0.94 ×10⁻⁶ cm/s. Moreover, in the data set with rat BMECs, the “Effect on cell viability of rat BMECs” value is “significantly inhibit the cell viability”.
